From patent publication US10450278B2, “Substituted 2-thioxo-imidazolidin-4-ones and spiro analogues thereof, active anticancer ingredient, pharmaceutical composition, medicinal preparation, method for treating prostate cancer” (R-Pharm Overseas Inc., priority 2014, dated 2019)

Target: T1, androgen receptors (Homo sapiens, UniProt P10275, T878A)
T1 sequence (P10275 1-920 T878A): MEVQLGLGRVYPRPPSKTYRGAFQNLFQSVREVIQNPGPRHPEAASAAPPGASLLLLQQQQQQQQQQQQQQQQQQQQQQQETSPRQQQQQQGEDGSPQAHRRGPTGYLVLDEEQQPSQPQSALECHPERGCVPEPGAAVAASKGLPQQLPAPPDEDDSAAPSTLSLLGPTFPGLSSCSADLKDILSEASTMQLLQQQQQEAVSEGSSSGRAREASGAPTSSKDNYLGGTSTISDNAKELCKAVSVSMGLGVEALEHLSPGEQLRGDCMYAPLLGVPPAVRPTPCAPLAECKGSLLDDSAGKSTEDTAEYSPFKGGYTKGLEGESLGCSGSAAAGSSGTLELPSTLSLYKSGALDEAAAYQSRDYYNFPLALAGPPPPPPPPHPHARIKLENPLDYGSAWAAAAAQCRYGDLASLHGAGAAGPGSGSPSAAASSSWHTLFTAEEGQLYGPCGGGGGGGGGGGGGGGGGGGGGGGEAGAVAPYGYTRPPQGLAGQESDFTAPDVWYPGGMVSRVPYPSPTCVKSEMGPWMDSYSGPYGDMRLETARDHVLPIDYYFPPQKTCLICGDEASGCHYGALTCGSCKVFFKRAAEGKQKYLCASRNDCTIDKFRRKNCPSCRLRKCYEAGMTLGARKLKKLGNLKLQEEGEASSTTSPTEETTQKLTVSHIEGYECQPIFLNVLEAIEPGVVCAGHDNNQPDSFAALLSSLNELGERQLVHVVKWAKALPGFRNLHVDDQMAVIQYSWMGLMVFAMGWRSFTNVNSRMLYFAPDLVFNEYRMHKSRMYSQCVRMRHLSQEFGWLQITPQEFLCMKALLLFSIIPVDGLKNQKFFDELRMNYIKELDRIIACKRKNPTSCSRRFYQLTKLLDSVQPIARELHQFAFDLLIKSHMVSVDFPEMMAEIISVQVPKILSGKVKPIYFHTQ
Experiment: cell-based
Method: Determination of antagonistic activity of the new compounds of general formula 1 and their analogues with respect to androgen receptors. The ability of the new compounds of general formula 1 and their analogues block androgen receptors is determined by their effectiveness ingbirovaniya sitmulirovannoy dihydrotestosterone expression of prostate-specific antigen (PSA) in the human prostate cancerous cells, LNCap, bank obtained from the American Tissue Culture (ATCC, USA). These cells are sensitive to 5-α-dihydrotestosterone (DHT) and produce cancerous marker (PSA) in its presence. […] Before experiments, the cells were washed and suspended in the same medium, where, however, calf serum was replaced with serum-treated to remove traces of charcoal hormones. Cells were dispensed at 100 1 (10 000 cells) in cell 96 lunochnoyh dies and left for 4 days in an incubator at […] (100% humidity) in an atmosphere of 95% air/5% CO2. […] Cells were allowed to stand for further 5 days under the same incubation conditions. Then nadkletochnoy environmental samples were taken for analysis on the content of the PSA. The analysis was performed according to the protocol recommended by the kit manufacturer to determine the PSA (Alpha Diagnostic International, USA). After wetting holes on the bottom affixed containing antibodies against PSA, they added 25 ul of samples and then 100 µL of antibodies as anti-PSA, which konyugtrovana horseradish peroxidase. After a 30 minute incubation at room temperature, the wells were removed, the wells were washed several times and poured into the wells, 100 ul of a chromogenic peroxidase substrate. Plates were incubated for 15 minutes at room temperature, the wells were added 50 mcl of stop solution and the intensity of color which developed was measured by absorbance at 450 nm. The intensity of the absorption is proportional to the concentration of PSA in the sample. […] 1.

Row | Structure (SMILES) | IC50 | Ki
1 | CNC(=O)c1ccc(N2C(=S)N(c3ccc(C#N)c(C(F)(F)F)c3)C(=O)[C@@]2(C)COC)cc1F [II] | 145 nM | 34.9 nM
2 | CNC(=O)c1ccc(N2C(=S)N(c3ccc(C#N)c(C(F)(F)F)c3)C(=O)[C@]23CCOC3)cc1F [IV] | 83.5 nM | 20.1 nM
